Data reported in ChEMBL document CHEMBL3046717, “Synthesis of Alkylene-Tethered Bis-Imidacloprid Derivatives as Highly Insecticidal and Nerve-Exciting Agents with Potent Affinity to [3H] Imidacloprid-Binding Sites on Nicotinic Acetylcholine Receptor” (J Pestic Sci, 2002).

Legend:
Periplaneta americana [1] = assay: Insecticidal activity against Periplaneta americana (American cockroach) assessed as killing compound injected into abdomen of cockroach after 24 hr measured per insect; format: functional
Periplaneta americana [2] = assay: (§1) Insecticidal activity against Periplaneta americana (American cockroach) assessed as killing compound injected into abdomen of cockroach after 24 hr in presence of 50 ug piperonyl butoxide oxidative metabolism inhibitor and 50 ug propargyl propyl benzenephosphonate inhibitor of hydrolytic measured per insect relative to compound alone; format: functional
Periplaneta americana [3] = assay: as §1, with “insect” for “insect relative to compound alone”; format: functional
Periplaneta americana [4] = assay: (§2) Insecticidal activity against Periplaneta americana (American cockroach) assessed as killing compound injected into abdomen of cockroach after 24 hr in presence of 50 ug propargyl propyl benzenephosphonate inhibitor of hydrolytic metabolism of tetramethrin pyrethroid measured per insect; format: functional
Periplaneta americana [5] = assay: Insecticidal activity against Periplaneta americana (American cockroach) assessed as killing compound injected into abdomen of cockroach after 24 hr in presence of 50 ug piperonyl butoxide oxidative metabolism inhibitor measured per insect; format: functional
Periplaneta americana [6] = assay: as §2, with “insect relative to compound alone” for “insect”; format: functional
Periplaneta americana [7] = assay: Insecticidal activity against Periplaneta americana (American cockroach) assessed as killing compound injected into abdomen of cockroach after 24 hr in presence of 50 ug piperonyl butoxide oxidative metabolism inhibitor measured per insect relative to compound alone; format: functional
[8] = target: T1, Nicotinic acetylcholine receptor alpha 5 subunit (Musca domestica, UniProt A9XFY4); assay: Displacement of [3H]imidacloprid from Musca domestica (house fly)-head membrane nAChR
T1 sequence (A9XFY4 whole entry): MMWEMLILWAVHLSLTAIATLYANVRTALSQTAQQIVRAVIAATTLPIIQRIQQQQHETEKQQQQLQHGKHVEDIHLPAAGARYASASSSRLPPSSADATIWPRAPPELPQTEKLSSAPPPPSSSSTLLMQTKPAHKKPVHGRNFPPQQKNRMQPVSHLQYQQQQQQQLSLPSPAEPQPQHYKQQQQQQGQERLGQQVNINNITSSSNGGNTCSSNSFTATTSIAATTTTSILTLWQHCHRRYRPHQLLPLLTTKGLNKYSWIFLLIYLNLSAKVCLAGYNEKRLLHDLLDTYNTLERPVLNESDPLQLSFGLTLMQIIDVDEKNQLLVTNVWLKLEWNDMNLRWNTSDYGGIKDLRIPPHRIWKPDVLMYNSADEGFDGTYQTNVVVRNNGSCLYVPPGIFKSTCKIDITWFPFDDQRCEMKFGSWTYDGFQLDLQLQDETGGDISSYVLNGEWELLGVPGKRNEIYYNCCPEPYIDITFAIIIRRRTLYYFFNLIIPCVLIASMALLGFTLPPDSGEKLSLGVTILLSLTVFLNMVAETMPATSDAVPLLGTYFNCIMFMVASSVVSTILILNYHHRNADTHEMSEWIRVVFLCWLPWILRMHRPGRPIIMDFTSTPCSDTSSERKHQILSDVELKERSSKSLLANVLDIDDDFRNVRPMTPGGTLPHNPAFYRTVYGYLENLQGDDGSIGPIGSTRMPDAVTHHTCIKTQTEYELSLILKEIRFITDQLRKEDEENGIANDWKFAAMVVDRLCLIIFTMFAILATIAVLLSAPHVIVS

[9] = target: T2, Nicotinic acetylcholine receptor alpha 5 subunit (Musca domestica) (UniProt A9XFY4); assay: Displacement of [3H]imidacloprid from Musca domestica (house fly)-head membrane nAChR relative to N,N'-(3,3'-(hexane-1,6-diyl)bis(1-((6-chloropyridin-3-yl)methyl)imidazolidin-3-yl-2-ylidene))dinitramide
T2 sequence (whole entry): T1 sequence (A9XFY4 whole entry)

Periplaneta americana [10] = assay: Insecticidal activity against Periplaneta americana (American cockroach) assessed as changes in frequency of firing in nerve cords in nerve preparation measured for every 30 secs immediately after treatment at 3x10'-6 M by electrophysiological method; format: functional, organism-based; details: TDE = time-dependent effect
Periplaneta americana [11] = assay: Insecticidal activity against Periplaneta americana (American cockroach) assessed as changes in frequency of firing in nerve cords in nerve preparation measured for every 30 secs immediately after treatment at 9x10'-7 M by electrophysiological method; format: functional; details: TDE = time-dependent effect

| Structure (SMILES) | MLD (Periplaneta americana [1]) [nmol] | Ratio (Periplaneta americana [2]) | MLD (Periplaneta americana [3]) [nmol] | MLD (Periplaneta americana [4]) [nmol] | MLD (Periplaneta americana [5]) [nmol] | Ratio (Periplaneta americana [6]) | Ratio (Periplaneta americana [7]) | IC50 [8] [µM] | Ratio [9] | Activity (Periplaneta americana [10]) | Activity (Periplaneta americana [11]) |
| --- | --- | --- | --- | --- | --- | --- | --- | --- | --- | --- | --- |
| O=[N+]([O-])/N=C1/N(CCCN2CCN(Cc3ccc(Cl)nc3)/C2=N/[N+](=O)[O-])CCN1Cc1ccc(Cl)nc1 | 4.9 | 6 | 0.79 |  |  |  |  |  |  |  |  |
| O=[N+]([O-])/N=C1/N(CCCCCCCN2CCN(Cc3ccc(Cl)nc3)/C2=N/[N+](=O)[O-])CCN1Cc1ccc(Cl)nc1 [Heptamethylene 1,7-bis-imadacloprid] | 2.8 | 13 | 0.22 |  |  |  |  |  |  |  |  |
| O=[N+]([O-])/N=C1\N(Cc2ccc(N3CCN(Cc4ccc(Cl)nc4)/C3=N\[N+](=O)[O-])cc2)CCN1Cc1ccc(Cl)nc1 | 27 | 50 | 0.54 | 2.7 | 6.7 | 10 | 4 |  |  |  |  |
| O=[N+]([O-])NC1=NCCN1Cc1ccc(Cl)nc1 [IMIDACLOPRID] |  |  |  |  |  |  |  | 0.02 |  |  |  |
| O=[N+]([O-])/N=C1/N(CCCCCN2CCN(Cc3ccc(Cl)nc3)/C2=N/[N+](=O)[O-])CCN1Cc1ccc(Cl)nc1 | 3.9 | 24 | 0.16 |  |  |  |  |  |  |  |  |
| O=[N+]([O-])/N=C1/N(Cc2ccc(Cl)nc2)CCN1Cc1cccc(N2CCN(Cc3ccc(Cl)nc3)/C2=N\[N+](=O)[O-])c1 | 20 | 20 | 1 |  |  |  |  |  |  |  |  |
| O=[N+]([O-])/N=C1\NCCN1Cc1ccc(Cl)nc1 [IMIDACLOPRID] | 2.5 | 36 | 0.07 | 0.19 | 0.78 | 13 | 3 |  | 160 |  |  |
| O=[N+]([O-])/N=C1/N(CCCOCCCN2CCN(Cc3ccc(Cl)nc3)/C2=N/[N+](=O)[O-])CCN1Cc1ccc(Cl)nc1 | 5.9 | 20 | 0.3 | 0.3 | 0.23 | 20 | 26 | 73 | 0.042 |  |  |
| O=[N+]([O-])/N=C1\N(C/C=C/CN2CCN(Cc3ccc(Cl)nc3)/C2=N/[N+](=O)[O-])CCN1Cc1ccc(Cl)nc1 | 30 | 20 | 1.5 |  |  |  |  |  |  |  |  |
| O=[N+]([O-])/N=C1\N(CCN2CCN(Cc3ccc(Cl)nc3)/C2=N/[N+](=O)[O-])CCN1Cc1ccc(Cl)nc1 | 8.3 | 8 | 1.1 | 2.2 | 8.3 | 4 | 1 | 110 | 0.028 |  |  |
| O=[N+]([O-])/N=C1\N(CC#CCN2CCN(Cc3ccc(Cl)nc3)/C2=N/[N+](=O)[O-])CCN1Cc1ccc(Cl)nc1 | 3.7 | 12 | 0.3 |  |  |  |  |  |  |  |  |
| O=[N+]([O-])/N=C1\N(CCCCN2CCN(Cc3ccc(Cl)nc3)/C2=N/[N+](=O)[O-])CCN1Cc1ccc(Cl)nc1 | 11 | 2 | 6.5 |  |  |  |  |  |  |  |  |
| O=[N+]([O-])/N=C1/N(CCCCCCCCCN2CCN(Cc3ccc(Cl)nc3)/C2=N/[N+](=O)[O-])CCN1Cc1ccc(Cl)nc1 | 2.8 | 16 | 0.17 |  |  |  |  |  |  |  |  |
| O=[N+]([O-])/N=C1\N(CCCCCCCCN2CCN(Cc3ccc(Cl)nc3)/C2=N/[N+](=O)[O-])CCN1Cc1ccc(Cl)nc1 | 4.5 | 26 | 0.17 |  |  |  |  |  |  |  |  |
| O=[N+]([O-])/N=C1\N(CCCCCCN2CCN(Cc3ccc(Cl)nc3)/C2=N/[N+](=O)[O-])CCN1Cc1ccc(Cl)nc1 | 2.2 | 8 | 0.29 | 0.22 | 0.58 | 10 | 4 | 3.1 |  | tde | tde |
| O=[N+]([O-])/N=C1\N(CCCCCCCCCCN2CCN(Cc3ccc(Cl)nc3)/C2=N/[N+](=O)[O-])CCN1Cc1ccc(Cl)nc1 | 3.7 | 16 | 0.23 | 0.19 | 1.5 | 19 | 2 | 27 | 0.11 |  |  |
